For this assay, the system named is Plasmodium berghei. Kind of assay: Luciferase/luciferin-expressing antifolate-resistant parasites were used to infect a culture of HepG2 cells that were pre-incubated with compounds. Infected hepatocytes emit light due to the luciferase reaction. Assay results are presented as the percent inhibition of light emission compared to control. […]. The settings on record: sporozoite; for IC90: read-out: LUCIFERASE INFECTION ASSAY - IC90. It is filed as functional.

[1] abbreviates: read-out: LUCIFERASE INFECTION ASSAY - IC50.

Regarding `CNC(=O)c1nn(CC2CCCCC2)c2c1CC(NC1CCCC1)CC2` (stereo unspecified), the 90% effect concentration (IC90) was greater than 9.2 µM. For the same compound, the concentration for half-maximal inhibition (IC50) (PBLUC_HILL_SLOPE 1.5, PBLUC_R_SQUARED 0.479, read-out: LUCIFERASE INFECTION ASSAY - IC50) is 4.38 µM.
For the compound `CC(C)CCNC(=O)NC(=O)CSc1nn(-c2ccc(F)cc2)c(=S)s1`, the IC90 is greater than 10 µM. Under setting [1], the IC50 was greater than 10 µM.
For the compound `O=c1c2ccccc2nc(SCc2cn3cc(Br)ccc3n2)n1-c1ccccc1F`, the concentration for an effect of 90% (IC90) was 3.99 µM. For the same compound, the IC50 (HEPG2TOX_HILL_SLOPE 9.92, HEPG2TOX_R_SQUARED 0.174, PBLUC_HILL_SLOPE 13.7, PBLUC_R_SQUARED 0.208, read-out: LUCIFERASE INFECTION ASSAY - IC50) was determined as 3.4 µM.
For `CCOC(=O)c1cc(NC(=O)Nc2ccc(Cl)c(Cl)c2)ccc1Oc1cncc(Cl)c1`, the IC90 worked out at 4.18 µM. For the same compound, where the note is “HEPG2TOX_HILL_SLOPE 3.45, HEPG2TOX_R_SQUARED 0.989, PBLUC_HILL_SLOPE 3.28, PBLUC_R_SQUARED 0.474, read-out: LUCIFERASE INFECTION ASSAY - IC50”, the IC50 was determined as 2.14 µM.
`Cc1[nH]c2c(-c3ccccc3)c(C(F)(F)F)nn2c(=O)c1Cc1ccccc1`: the concentration for an effect of 90% (IC90) is greater than 8.61 µM. The IC50 under setting [1] came out at 7.44 µM.
Turning to `COc1ccc(C(=O)N2CCN(C(c3ccc(F)cc3)c3ccc(F)cc3)CC2)cc1S(=O)(=O)NCCN(C)C`, the IC90 was greater than 10 µM. Moreover, the half-maximal inhibitory concentration (IC50) under setting [1] is greater than 10 µM.
Regarding `COC(=O)C1=C(Sc2ccc(Cl)cc2)CSC1`, the 90% effect concentration (IC90) was greater than 11.5 µM. In addition, for the setting “PBLUC_HILL_SLOPE 0.458, PBLUC_R_SQUARED 0.122, read-out: LUCIFERASE INFECTION ASSAY - IC50”, the IC50 was greater than 11.5 µM.
Consider `CC(C)(C)c1ccc(OCc2ccc(C(=O)N3CCN(CC(=O)NC4CC4)CC3)cc2)cc1`, for which the IC90 is greater than 10 µM. Besides, the IC50 (HEPG2TOX_HILL_SLOPE 1.95, HEPG2TOX_R_SQUARED 0.886, PBLUC_HILL_SLOPE 11.8, PBLUC_R_SQUARED 0.642, read-out: LUCIFERASE INFECTION ASSAY - IC50) was 8.43 µM.
With `O=C(Nc1ccccc1)c1cn(-c2ccc3c(c2)OCCO3)nn1`, the IC90 came out at 5.96 µM. Besides, under “FFLUC_HILL_SLOPE 1.49, FFLUC_R_SQUARED 0.912, PBLUC_HILL_SLOPE 0.315, PBLUC_R_SQUARED 0.673, read-out: LUCIFERASE INFECTION ASSAY - IC50”, the IC50 worked out at 0.00562 µM.
Take `Fc1cccc(-c2cnc3cnc(-c4ccncc4)cn23)c1`: the concentration for an effect of 90% (IC90) is greater than 11.4 µM. In addition, the IC50 (HEPG2TOX_HILL_SLOPE 3.65, HEPG2TOX_R_SQUARED 0.679, PBLUC_HILL_SLOPE 2.42, PBLUC_R_SQUARED 0.708, read-out: LUCIFERASE INFECTION ASSAY - IC50) is 5.64 µM.
For the compound `COc1cc(-c2cc(NCc3cccc(C(F)(F)F)c3)ncn2)cc(OC)c1OC`, the IC90 was greater than 7.87 µM. Moreover, the half-inhibitory concentration (IC50) (FFLUC_HILL_SLOPE 0.883, FFLUC_R_SQUARED 0.362, PBLUC_HILL_SLOPE 0.944, PBLUC_R_SQUARED 0.459, read-out: LUCIFERASE INFECTION ASSAY - IC50) was 0.859 µM.
On to `CN(C)C(CNC(=O)c1ccc(NC(=O)OC(C)(C)C)cc1)c1cccs1` (stereo unspecified), for which the concentration for an effect of 90% (IC90) is greater than 10 µM. In addition, the IC50 under setting [1] was greater than 10 µM.
Take `COc1cc(-c2ccc3ncc(-c4cccc(CO)c4)n3n2)cc(OC)c1OC`: the IC90 was determined as 2.51 µM. Moreover, the 50% inhibitory concentration (IC50) (HEPG2TOX_HILL_SLOPE 2.11, HEPG2TOX_R_SQUARED 0.989, PBLUC_HILL_SLOPE 5.29, PBLUC_R_SQUARED 0.606, read-out: LUCIFERASE INFECTION ASSAY - IC50) is 1.66 µM.
In the case of `COc1ccc(CNc2nc3cnc(Nc4ccc(OC(F)(F)F)cc4)cc3n2C)cc1OC`, the 90% effect concentration (IC90) is greater than 10 µM. Besides, the IC50 under setting [1] is greater than 10 µM.
For the compound `O=C(Nc1ccc(-c2nc(-c3ccc(O)c(O)c3)cs2)cc1)c1cccs1`, the 90% effect concentration (IC90) is greater than 10 µM. The 50% inhibitory concentration (IC50) under setting [1] was greater than 10 µM.
In the case of `O=C(CSc1nc2cc(S(=O)(=O)Nc3ccccc3Cl)ccc2o1)NCc1ccccc1`, the IC90 was greater than 10 µM. For the same compound, under setting [1], the half-inhibitory concentration (IC50) was greater than 10 µM.
In the case of `Fc1ccc(-c2cs/c(=N\CC3CCCO3)n2/N=C/c2ccccc2F)cc1` (stereo unspecified), the IC90 was greater than 10 µM. Moreover, the IC50 (HEPG2TOX_HILL_SLOPE 2.73, HEPG2TOX_R_SQUARED 0.938, PBLUC_HILL_SLOPE 4.49, 0.768, PBLUC_R_SQUARED 0.141, 0.452, read-out: LUCIFERASE INFECTION ASSAY - IC50) was determined as 5.54 µM.
On to `CN1CCN(c2ccc(-c3cn4c(-c5ccc(CO)cc5)cnc4cn3)cc2)CC1`, for which the 90% effect concentration (IC90) is greater than 8.26 µM. Under “PBLUC_HILL_SLOPE 2.22, PBLUC_R_SQUARED 0.0391, read-out: LUCIFERASE INFECTION ASSAY - IC50”, the IC50 is greater than 8.26 µM.
For the compound `CC(=O)c1ccc(S(=O)(=O)N(Cc2c(F)cccc2Cl)C2CC2)cc1`, the concentration for an effect of 90% (IC90) was greater than 10 µM. Further, the IC50 under setting [1] was greater than 10 µM.
For `OCc1ccc(-c2cn3c(-c4ccccc4)cnc3cn2)cc1`, the IC90 was greater than 11 µM. Besides, the IC50 (HEPG2TOX_HILL_SLOPE 0.117, HEPG2TOX_R_SQUARED 0.27, read-out: LUCIFERASE INFECTION ASSAY - IC50) was greater than 11 µM.
On to `Cc1cc(N2CCN(CCO)CC2)n2ncc(-c3ccc(F)cc3)c2n1`, for which the IC90 worked out at 7.96 µM. The IC50 (PBLUC_HILL_SLOPE 1.69, PBLUC_R_SQUARED 0.874, read-out: LUCIFERASE INFECTION ASSAY - IC50) worked out at 2.17 µM.
As for `Cc1cc(C)c(S(=O)(=O)Nc2cc(C)nn2-c2ccccn2)c(C)c1`, the IC90 turned out to be 3.28 µM. Besides, the IC50 (HEPG2TOX_HILL_SLOPE 1.93, HEPG2TOX_R_SQUARED 0.937, PBLUC_HILL_SLOPE 16.1, PBLUC_R_SQUARED 0.725, read-out: LUCIFERASE INFECTION ASSAY - IC50) was 2.86 µM.
As for `O=C(Nc1ccc(C(F)(F)F)cc1)Nc1sccc1Cl`, the IC90 turned out to be 7.98 µM. In addition, the half-maximal inhibitory concentration (IC50) (HEPG2TOX_HILL_SLOPE 9.59, HEPG2TOX_R_SQUARED 0.7, PBLUC_HILL_SLOPE 5.14, PBLUC_R_SQUARED 0.452, read-out: LUCIFERASE INFECTION ASSAY - IC50) came to 5.21 µM.
Consider `COc1ccc(Nc2nccc3[nH]c(-c4ccsc4)cc23)cn1`, for which the IC90 is greater than 10 µM. Moreover, under setting [1], the IC50 is greater than 10 µM.
Regarding `COc1ccc2c(C)cc3nnc(SCCOc4ccccc4F)n3c2c1`, the IC90 is 5.11 µM. Also, the IC50 (PBLUC_HILL_SLOPE 752, PBLUC_R_SQUARED 0.219, read-out: LUCIFERASE INFECTION ASSAY - IC50) stood at 5.09 µM.
Take `Cc1cccc2c(=O)nc(CSc3ncnc4sc(-c5ccccc5)cc34)[nH]c12`: the 90% effect concentration (IC90) was greater than 10 µM. Further, the half-inhibitory concentration (IC50) (HEPG2TOX_HILL_SLOPE 2.96, HEPG2TOX_R_SQUARED 0.569, read-out: LUCIFERASE INFECTION ASSAY - IC50) was greater than 10 µM.
For `O=C(c1cccc(-c2ccncc2)c1)c1cnc(Nc2cccc(Br)c2)[nH]1`, the 90% effect concentration (IC90) is 2.54 µM. The IC50 (HEPG2TOX_HILL_SLOPE 2.34, HEPG2TOX_R_SQUARED 0.815, PBLUC_HILL_SLOPE 3.59, PBLUC_R_SQUARED 0.729, read-out: LUCIFERASE INFECTION ASSAY - IC50) was 1.38 µM.
Regarding `CNC(=O)c1cccc(-c2ccc3ncc(-c4ccc(NC(C)=O)cc4)n3n2)c1`, the IC90 was found to be 2.63 µM. Also, the IC50 (HEPG2TOX_HILL_SLOPE 1.21, HEPG2TOX_R_SQUARED 0.751, PBLUC_HILL_SLOPE 4.52, PBLUC_R_SQUARED 0.725, read-out: LUCIFERASE INFECTION ASSAY - IC50) was 1.62 µM.
With `CC(C)c1nc(NCCCN2CCOCC2)c(C#N)c2c1CCCC2`, the IC90 is greater than 9.64 µM. Moreover, the half-inhibitory concentration (IC50) under setting [1] is greater than 9.64 µM.
In the case of `CC(NC(=O)c1ccccc1NC(=O)CSc1ccc2c3c(cccc13)CC2)c1ccccc1` (stereo unspecified), the 90% effect concentration (IC90) is greater than 10 µM. In addition, where the note is “FFLUC_HILL_SLOPE 9.73, FFLUC_R_SQUARED 0.624, HEPG2TOX_HILL_SLOPE 6.39, HEPG2TOX_R_SQUARED 0.223, read-out: LUCIFERASE INFECTION ASSAY - IC50”, the IC50 is greater than 10 µM.
`O=C(Nc1nc(-c2ccccn2)cs1)c1ccc(-n2cncn2)cc1`: the IC90 stood at 1.2 µM. Moreover, the concentration for half-maximal inhibition (IC50) (HEPG2TOX_HILL_SLOPE 1.34, HEPG2TOX_R_SQUARED 0.829, PBLUC_HILL_SLOPE 31.3, PBLUC_R_SQUARED 0.545, read-out: LUCIFERASE INFECTION ASSAY - IC50) was 1.12 µM.
With `CSc1sc(C(N)=S)c(C)c1C(C)=O`, the IC90 was greater than 13.4 µM. Further, the IC50 under setting [1] was greater than 13.4 µM.
Regarding `O=C(CN1CCn2cccc2C1c1ccccc1)N1CCc2sccc2C1` (stereo unspecified), the IC90 worked out at 4.34 µM. For the same compound, the IC50 (PBLUC_HILL_SLOPE 14, PBLUC_R_SQUARED 0.298, read-out: LUCIFERASE INFECTION ASSAY - IC50) is 3.71 µM.
As to `CC(C)Nc1ccc(Nc2ccccc2)cc1`, the 90% effect concentration (IC90) worked out at 3.79 µM. In addition, for the setting “HEPG2TOX_HILL_SLOPE 3.79, HEPG2TOX_R_SQUARED 0.984, PBLUC_HILL_SLOPE 20.8, PBLUC_R_SQUARED 0.712, read-out: LUCIFERASE INFECTION ASSAY - IC50”, the concentration for half-maximal inhibition (IC50) came to 3.41 µM.
Consider `Cc1occc1C(=O)N1CCN(C(=O)c2ccc3ccccc3c2)CC1`, for which the IC90 is greater than 2 µM. Also, under setting [1], the IC50 is greater than 2 µM.
Consider `Cc1ccc(S(=O)(=O)NNC(=O)COc2ccc(SC(F)(F)F)cc2)cc1`, for which the 90% effect concentration (IC90) was greater than 7.85 µM. Also, for the setting “PBLUC_HILL_SLOPE 0.658, PBLUC_R_SQUARED 0.0672, read-out: LUCIFERASE INFECTION ASSAY - IC50”, the IC50 is greater than 7.85 µM.
For the compound `N#C/C(=N\Nc1ccc(OC(F)(F)F)cc1)S(=O)(=O)c1ccccn1`, the IC90 is greater than 8.91 µM. Also, under setting [1], the IC50 was greater than 8.91 µM.
As for `Cn1cc(C(=O)c2ccccc2O)cc1-c1nc2ccccc2[nH]1`, the IC90 is 4.94 µM. The concentration for half-maximal inhibition (IC50) (HEPG2TOX_HILL_SLOPE 8.08, HEPG2TOX_R_SQUARED 0.741, PBLUC_HILL_SLOPE 7.01, PBLUC_R_SQUARED 0.754, read-out: LUCIFERASE INFECTION ASSAY - IC50) was 3.61 µM.

One may read the IC50 as the concentration that gives 50% inhibition. The term IC90 denotes the point of the concentration-response curve where the effect stands at 90%.

These data come from ChEMBL document CHEMBL4483862, “Open-source discovery of chemical leads for next-generation chemoprotective antimalarials” (2018).
